Data on two compounds can be found in patent publication US12359169B2, “Universal CAR-T cell and preparation method and use thereof” (SHANGHAI LONGYAO BIOTECHNOLOGY INC., LTD., priority 2018, dated 2025).

Series [1] deals with CD3^−20uCAR-T cells. Kind of series: Regulation of U-CAR-T survival by ganciclovir in vivo (Raji xenograft). The note with it: NSG mice with Raji, FIG. 4C. The method, then:
NSG mice (n=6/group) were injected intravenously with 5×10^5 Raji, which was followed by the administration of 1×10^7 CD3^−20uCAR-T cells on day 7 or two hundred micrograms of Ganciclovir were administered on day 7, 10 and 13. 7 days after the treatment, bone marrow, spleen and peripheral blood were collected for analysis of CAR-T cell (mCD45^−hCD45^+hCD3^+) persistence and Raji (mCD45^−hCD45^+hCD19^+) tumor cell burden (FIG. 4C). Statistical significance was determined by Mann-Whitney U test and presented by *P<0.05, **P<0.01, ***P<0.001; NS: Not Significant. Statistical significance was determined by unpaired t test. Statistical significance was presented by *P<0.05, ***P<0.001.

Series [2] deals with U-CAR-T cells. In words: Regulation of U-CAR-T survival by ganciclovir in vitro. It counts as cell-based, human. The note with it: ganciclovir 0-3 μg/mL, 48 hours, anti-CD20 and anti-CD19 U-CAR-T, FIG. 4A. Here is the method:
The anti-CD20 U-CAR-T cells obtained in Example 1, anti-CD19 U-CAR-T cells (prepared according to the method in Example 1) and the control CAR-T (without knockout of CD3) were inoculated into 96-well plates, and the number of surviving CAR-Ts was compared after 48 hours by adding the indicated concentration of ganciclovir (0, 0.1 μg/mL, 0.3 μg/mL, 1 μg/mL, 3 μg/mL), and the results are shown in FIG. 4A.

Series [3] relates to CD3 gene. In words: sgRNA knockdown efficiency assay (transient transfection, flow detection with anti-TCR antibody). The note with it: Jurkat cells, 0.6 μg pLenti-CrisprV2 plasmid, harvested at 48 h, FIG. 1F. The series is classed as cell-based, human. Here is the method: 2×10^5 Jurkat cells were transiently transfected with 0.6 μg pLenti-CrisprV2-hCD3E1/E2/D1/D2/Z1/Z2/G1/G2/G3 plasmids and cells were harvested at 48 h. Anti-TCR antibody was used for flow detection and untransfected plasmids were used as negative control.
The box in the figure represented the knockdown efficiency, where Z1 has the highest knockdown efficiency (about 81.2%).

For the compound `Nc1nc(O)c2ncn(COC(CO)CO)c2n1` [ganciclovir], the “clearance of CD3− UCAR-T cells from organs” value in series [1] (200 micrograms ganciclovir on day 7, 10 and 13, bone marrow, spleen, peripheral blood) is “effectively cleared”. The tumor load result in series [1] (CD3− UCAR-T plus ganciclovir, compared to CD3+ CAR-T) is listed as “elevated tumor load”. Also, in series [2], the “number of surviving CAR-Ts (survival of U-CAR-T)” value is on record as “can regulate the survival of U-CAR-T”.

As to “Z1: sgRNA for knockout of CD3 zeta, SEQ ID NO: 8, GTGGAAGGCGCTTTTCACCG (listed as DNA, chemistry not given here)”, in series [3], the knockdown efficiency entry was “about 81.2%”.
